Laboratory results reported in patent US20200270309A1, “MALEIMIDE GROUP-MODIFIED ANGIOGENESIS INHIBITOR HM-1 AND USE THEREOF” (NANJING ANJI BIOLOGICAL TECHNOLOGY CO., LTD, priority 2017, published 2020).
Marks after values point to notes of the source that are not given here. Peptide text beside a SMILES is read from it. * marks the point of attachment. X55 = O=C1C=CC(=O)N1c1ccccc1CCCCCCCCC(=O)*

Key:
adjuvant arthritis = assay: Rat adjuvant arthritis (AA) animal model; format: in vivo, SD rats; conditions: 4.0 mg/kg
splenic lymphocytes = assay: Proliferation of splenic lymphocytes in mice (ConA, MTT); format: cell-based; conditions: ConA-stimulated mouse splenic lymphocytes, 48 h
How it was run: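 Proliferation read as OD 570 nm after 4 h MTT and DMSO solubilisation, five parallel wells. Before that, ConA-stimulated splenic lymphocytes from mice, 5×10^6 cells/mL in 10% calf serum RPMI 1640, were cultured 48 h at 37° C. with different peptide concentrations; controls were blank, ConA alone and dexamethasone.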

[1] = test system: carrageenan-induced toe swelling; assay: Carrageenan-induced toe swelling in rats; format: in vivo; conditions: SD rats; for Swelling degree 1 h: 1 h after carrageenan; for Swelling degree 3 h: 3 h after carrageenan; for Swelling degree 5 h: 5 h after carrageenan; for Swelling degree 7 h: 7 h after carrageenan
How it was run: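 Paw swelling, in mL, is the post-inflammation minus pre-inflammation volume of the right hind foot, read as overflow liquid when immersed to a pen-marked joint. Treatment was daily injection over 3 d; model group received saline of the same volume.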

[2] = Half-lives and pharmacokinetic parameters of polypeptides vs HM-1; conditions: in vivo
[3] = test system: retinal neovascularization (OIR model); assay: Retinal vessels in OIR mice; format: in vivo, C57/B16 mice
How it was run: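 C57/B16 pups were held in 75% oxygen from postnatal day 7 to 12, then returned to room air. On day 13 they received intravitreal saline or compound. On day 17 perfused vessels were labelled by Texas red tomato agglutinin injected into the left ventricle (5 min circulation) and retinal vasculature assessed.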

[4] = test system: choroidal neovascularization; assay: Choroidal neovascularization in rats (laser photocoagulation, FFA); format: in vivo; conditions: BN rats
How it was run: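 Male BN rats aged 6-8 weeks were given 8 krypton-laser spots around the optic disc (647.1 nm, 350 mW, 50 μm, 0.05 s). Once the model was confirmed, groups of 5 got daily intravitreal compound at 0.05 μM or saline for 1 week. FFA followed at 3, 7, 14 and 28 days after dosing.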

[5] = intravenous in the tail once every five days from day 10, mean±SD
[6] = day 3 after administration, total light spot number was 297, 0.05 μM in the vitreous chamber once a day for 1 week
[7] = day 7 after administration, total light spot number was 186, 0.05 μM in the vitreous chamber once a day for 1 week
[8] = day 14 after administration, total light spot number was 137, 0.05 μM in the vitreous chamber once a day for 1 week
[9] = day 28 after administration, total light spot number was 69, 0.05 μM in the vitreous chamber once a day for 1 week

- AUC(0-inf) [2]: 31800 ± 8320 ng·h/mL
- MRT inf [2]: 57.1 ± 12.9 h
- clearance [2]: 0.523 mL/min/kg
- half-life ([2]; T1/2β (half-life)): 39.56 ± 0.28 h
Compound: C[C@H](NC(=O)CNC(=O)[C@H](CCCNC(=N)N)NC(=O)CCCCCCCCc1ccccc1N1C(=O)C=CC1=O)C(=O)N[C@@H](CC(=O)O)C(=O)N[C@@H](CCCNC(=N)N)C(=O)N[C@@H](C)C(=O)NCC(=O)NCC(=O)NCC(=O)NCC(=O)N[C@@H](CCCNC(=N)N)C(=O)NCC(=O)N[C@@H](CC(=O)O)C(=O)O [X20] (X55-RGADRAGGGGRGD-OH)
- Clinical score (adjuvant arthritis; intravenous in the tail once every five days from day 10, four paws scored 0-4, max 16, mean±SD): 5.74 ± 1.11
- Joint swelling degree (adjuvant arthritis; [5]): 0.8 ± 0.17 mm
- Left and right paw swelling degree (adjuvant arthritis; [5]): 3.87 ± 0.95 mm
- A570 nm/A630 nm (splenic lymphocytes; polypeptide dose 0.05 μM): 0.5977 ± 0.1129
- Inhibition rate (%) (splenic lymphocytes; polypeptide dose 0.05 μM): 11.50%
- A570 nm/A630 nm (splenic lymphocytes; polypeptide dose 0.1 μM): 0.5419 ± 0.0423
- Inhibition rate (%) (splenic lymphocytes; polypeptide dose 0.1 μM): 19.77%
- A570 nm/A630 nm (splenic lymphocytes; polypeptide dose 0.2 μM): 0.4947 ± 0.1213
- Inhibition rate (%) (splenic lymphocytes; polypeptide dose 0.2 μM): 26.75%
- Swelling degree 1 h ([1]; 2.0 mg/kg once a day for 3 d): 0.25 ± 0.18 mg
- Swelling degree 3 h ([1]; 2.0 mg/kg once a day for 3 d): 0.34 ± 0.13 mg
- Swelling degree 5 h ([1]; 2.0 mg/kg once a day for 3 d): 0.36 ± 0.13 mg
- Swelling degree 7 h ([1]; 2.0 mg/kg once a day for 3 d): 0.37 ± 0.12 mg
- Swelling degree 1 h ([1]; 4.0 mg/kg once a day for 3 d): 0.24 ± 0.15 mg
- Swelling degree 3 h ([1]; 4.0 mg/kg once a day for 3 d): 0.34 ± 0.12 mg
- Swelling degree 5 h ([1]; 4.0 mg/kg once a day for 3 d): 0.35 ± 0.16 mg
- Swelling degree 7 h ([1]; 4.0 mg/kg once a day for 3 d): 0.35 ± 0.12 mg
- Area of neovascular plexus (mm^2) ([3]; dose 0.05 μM in the vitreous chamber on day 13, retinal vessels evaluated on day 17): 0.118 ± 0.014 mm^2
- Inhibition rate (%) ([3]; dose 0.05 μM in the vitreous chamber on day 13, retinal vessels evaluated on day 17, vs negative control): 44.34%*
- CNV Incidence (%) [4, 6]: 52.53%
- Leakage Light spot number [4, 6]: 156
- CNV Incidence (%) [4, 7]: 48.92%
- Leakage Light spot number [4, 7]: 91
- CNV Incidence (%) [4, 8]: 42.34%
- Leakage Light spot number [4, 8]: 58
- CNV Incidence (%) [4, 9]: 39.13%
- Leakage Light spot number [4, 9]: 27
